From patent US11440923B2, “Substituted macrocyclic indole derivatives” (Bayer Aktiengesellschaft, priority 2017, dated 2022) come the findings set out here.

One series concerns the target MCL-1 (Homo sapiens (Human), UniProt Q07820, K194A/K197A/R201A). The experiment in a line: Protein-protein interaction assay MCL-1/Noxa BH3 peptide (MCL-1 assay, TR-FRET). It is filed as binding. How it is done:
The dose-dependent inhibition by the compounds described in this invention of the interaction between MCL-1 and the BH3 domain of Noxa (both human) was determined using a steady state binding competition assay with time-resolved fluorescence energy transfer (TR-FRET) readout. For that purpose MCL-1 (amino acids 173-321, N-terminal fused to Maltose Binding Protein (MBP) SEQ ID 1)) and a synthetic Noxa BH3-derived peptide of sequence Biotin-PEG2-PEG2-PAELEVE-Nva-[…]-amide (SEQ ID 2) served as protein receptor and tracer ligand respectively. The MBP-MCL-1 was purchased from Beryllium (Bedford, Mass., USA). The expression and purification of this protein construct has been described elsewhere (DOI:10.1371/journal.pone.0125010). The Noxa BH3-derived peptide can be obtained from e.g. Biosyntan (Berlin, Germany).
For that, 100-fold concentrated DMSO solutions were prepared by serial dilutions (1:3.4) of a 2 mM stock solution in a clear, 384-well microtiter plate (Greiner Bio-One, Frickenhausen, Germany). From there, 50 nl were transferred in a dark test plate (Greiner Bio-One, Frickenhausen, Germany). The assay was initiated by addition of 2 μL of a 2,5-fold concentrated MBP-MCL-1 solution (usually for a 1 nM end concentration in 5 μL reaction volume) in aqueous assay buffer [50 mM Tris/HCl pH 7, 100 mM sodium chloride (NaCl), 50 mM potassium fluoride (KF), 0.005% Tween-20, 2 mM DTT, 0.1% bovine gamma globulin (BGG)] to the compounds in the assay plate. This was followed by a 10-minute incubation step at 22° C. for pre-equilibration of the putative complex between MBP-MCL-1 and the compounds.
The mixture was incubated in the dark for one hour at 22° C. and then overnight at 4° C. The formation of MCL-1/Noxa complexes was determined by measuring the resonance energy transfer of the anti-MBP-Eu-cryptate antibody to the streptavidin-XL665 present in the reaction.
For that purpose, the fluorescence emission at 620 nm and 665 nm after excitation at 330-350 nm was measured in a TR-FRET measuring instrument, for instance a Rubystar or a Pherastar (both from BMG Lab Technologies, Offenburg, Germany) or a Viewlux (Perkin-Elmer). The ratio of the emission at 665 nm and at 622 nm was used as indicator of the amount of MCL-1/NOXA complexes present.
The resulting data (ratio) were normalized, taking 0% inhibition as the mean value of control measurements (usually 32 data points) where all reagents were included. In this case 50 nl DMSO were used instead of compounds. […] IC50 values were determined by regression analysis based on a 4 parameter equation (minimum, maximum, IC50, Hill; Y=Max+(Min−Max)/(1+(X/IC50)^Hill) using the Screener Software (Genedata).

Series [1] concerns SUDHL5 cells. The experiment in a line: Induction of caspase-3/7 activity in SUDHL5 cells (Assay 4). It is filed as cell-based. To be noted: caspase-3/7 induction, 3 h, read-out: Caspase SUDHL5 EC50 (median). The procedure, abridged: (§1)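 Read-out: Caspase-Glo 3/7 luminescence (1 h, 37 °C) after cells, plated overnight, were treated with compounds for 3 h at 37 °C. Signal corrected for cell-free medium background and expressed relative to DMSO control mean.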

The test system of series [2] is SUDHL10 cells. The series is described as follows: Induction of caspase-3/7 activity in SUDHL10 cells (Assay 4). It is filed as cell-based. To be noted: caspase-3/7 induction, 3 h, read-out: Caspase SUDHL10 EC50 (median). The gist of the method: as §1
Series [3] has as its system SUDHL5 cells. The experiment in a line: Induction of cytotoxicity in SUDHL5 cells (Assay 6). The format is cell-based. The gist of the method: (§2)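 Overnight seeding, 37 °C; 5 h compound exposure; CellTiter-Glo, 15 min RT shake; luminescence read. No-cell medium control.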
The subject of series [4] is SUDHL10 cells. The experiment in a line: Induction of cytotoxicity in SUDHL10 cells (Assay 6). The format is cell-based. The gist of the method:
as §2

For series [5], the system named is SUDHL5 cells. The series is described as follows: Antiproliferation assay SUDHL5 (Assay 7). The format is cell-based. Particulars: 72 h, CellTiter-Glo, read-out: Antiproli SUDHL5 IC50 (median). The gist of the method:
(§3)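 Growth inhibition is determined from ATP luminescence (CellTiter-Glo) following 72 h incubation with compound. Time-zero cells are measured the same way for baseline, and IC50s are referenced to DMSO controls.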

A further series deals with AMO-1 cells. The series is described as follows: Antiproliferation assay AMO-1 (Assay 7). Particulars: 72 h, CellTiter-Glo, read-out: Antiproli AMO-1 IC50 median. It is filed as cell-based. The gist of the method:
as §3
Background: Cellular ATP, detected with luciferase, serves as a proxy for viable cell number.

A further series deals with HMC-1-8 cells. The experiment in a line: Antiproliferation assay HMC-1-8 (Assay 7). It is filed as cell-based. The procedure, abridged: as §3
Setting [6] is: Homo sapiens, SU-DHL-5, 5 h, 5 h, CellTiter-Glo, read-out: Cytotox SUDHL5 IC50 (median).
Setting [7] is: Homo sapiens, SU-DHL10, 5 h, 5 h, CellTiter-Glo, read-out: Cytotox SUDHL10 IC50 (median).
[8] abbreviates: 72 h, CellTiter-Glo, read-out: Antiproli HMC-1-8 IC50 median.
Setting [9] is: 5 h, CellTiter-Glo, read-out: Cytotox SUDHL5 IC50 (median).
The mark [10] stands for this setting: 5 h, CellTiter-Glo, read-out: Cytotox SUDHL10 IC50 (median).
Where [11] appears, read: 72 h, CellTiter-Glo; read-out: Antiproli HMC-1-8 IC50 median.
The mark [12] stands for this setting: read-out: MCL-1 Assay IC50 (median).

Read-outs that look alike come from different tables or passages of the source. Some results are limits rather than exact numbers.

Sequence of MCL-1 (Q07820 whole entry, looked up, stated change not applied, the tested form may be a part): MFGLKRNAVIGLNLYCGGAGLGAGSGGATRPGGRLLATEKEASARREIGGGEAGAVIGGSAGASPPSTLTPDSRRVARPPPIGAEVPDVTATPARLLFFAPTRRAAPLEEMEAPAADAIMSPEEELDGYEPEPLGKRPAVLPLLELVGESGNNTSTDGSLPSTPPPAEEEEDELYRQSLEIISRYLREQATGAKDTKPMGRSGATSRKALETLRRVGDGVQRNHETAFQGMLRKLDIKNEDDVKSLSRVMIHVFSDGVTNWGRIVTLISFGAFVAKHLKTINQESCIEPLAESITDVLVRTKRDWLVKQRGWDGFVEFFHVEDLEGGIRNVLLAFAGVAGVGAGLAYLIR

Take `CCc1c2c(nn1C)C(CCN(C)OC)OCCCCn1c(C(=O)O)c(CCCOc3cccc4cc(F)ccc34)c3ccc(Cl)c-2c31` (racemic) [Example 80, (rac)-4-chloro-3-ethyl-7-{3-[(6-fluoronaphthalen-1-yl)oxy]propyl}-(15-rac)-{2-[methoxy(methyl)amino]ethyl}-2-methyl-2,10,11,12,13,15-hexahydropyrazolo[4′,3′:9,10][1,6]oxazacycloundecino[8,7,6-hi]indole-8-carboxylic Acid]: the IC50 (as a rule, the concentration needed to halve the response being measured) amounted to 3.5 nM on MCL-1 (MCL-1 Assay IC50 (median)); 150 nM in the series on SUDHL5 cells [3] (setting [6]); 250 nM in the series on SUDHL10 cells [4] (setting [7]); 170 nM with SUDHL5 cells [5] (Homo sapiens, SU-DHL-5, 72 h); 47.4 nM in the series on AMO-1 cells (Homo sapiens, AMO1, 72 h); 1590 nM with HMC-1-8 cells (setting [8]). Moreover, the EC50 (commonly the concentration that produces a half-maximal response) in the series on SUDHL5 cells [1] (Homo sapiens, SU-DHL-5, 3 h) came to 140 nM; in the series with SUDHL10 cells [2] (Homo sapiens, SU-DHL10, 3 h), 130 nM.

For the compound `CCc1c2c(nn1C)C1CCCN1CCCCn1c(C(=O)O)c(CCCOc3cccc4cc(F)ccc34)c3ccc(Cl)c-2c31` (racemic) [Example 104, (rac)-17-chloro-1-ethyl-14-{3-[(6-fluoronaphthalen-1-yl)oxy]propyl}-2-methyl-3b,4,5,6,8,9,10,11-octahydro-2H-pyrazolo[3′,4′:8,9]pyrrolo[1′,2′:6,7][1,6]diazacycloundecino[10,11,1-hi]indole-13-carboxylic Acid], the concentration for half-maximal inhibition (IC50) against MCL-1 (MCL-1 Assay IC50 (median)) was determined as 0.88 nM; with SUDHL5 cells [3] (setting [9]), 340 nM; with SUDHL10 cells [4] (setting [10]), 430 nM; in the series on SUDHL5 cells [5] (Homo sapiens, SU-DHL-5, 72 h) it was 550 nM; in the series with AMO-1 cells, 543 nM; in the series on HMC-1-8 cells (setting [11]) it was 2630 nM. Moreover, the EC50 in the series with SUDHL5 cells [1] (Homo sapiens, SU-DHL-5, 3 h) stood at 330 nM; in the series on SUDHL10 cells [2], 360 nM.

For the compound `CCc1c2c(nn1C)C1CCCN1CCCCn1c(C(=O)O)c(CCCOc3cccc4cc(F)ccc34)c3ccc(Cl)c-2c31` (racemic) [Example 107, (rac)-17-chloro-1-ethyl-14-{3-[(6-fluoronaphthalen-1-yl)oxy]propyl}-2-methyl-3b,4,5,6,8,9,10,11-octahydro-2H-pyrazolo[3′,4′:8,9]pyrrolo[1′,2′:6,7][1,6]diazacycloundecino[10,11,1-hi]indole-13-carboxylic Acid], the concentration for half-maximal inhibition (IC50) turned out to be 1.1 nM against MCL-1 (MCL-1 Assay IC50 (median)); 690 nM in the series on SUDHL5 cells [3] (setting [9]); 890 nM in the series with SUDHL10 cells [4] (setting [10]); 1100 nM in the series with SUDHL5 cells [5]; 1340 nM with AMO-1 cells; 6640 nM in the series with HMC-1-8 cells (setting [11]). In addition, the EC50 in the series with SUDHL5 cells [1] was found to be 540 nM; in the series with SUDHL10 cells [2], 1200 nM.

On to `CCc1c2c(nn1C)C(CCN1CC(F)C1)OCCCCn1c(C(=O)O)c(CCCOc3cccc4cc(F)ccc34)c3ccc(Cl)c-2c31` (racemic) [Example 108, (rac)-4-chloro-3-ethyl-15-[2-(rac)-(3-fluoroazetidin-1-yl)ethyl]-7-{3-[(6-fluoronaphthalen-1-yl)oxy]propyl}-2-methyl-2,10,11,12,13,15-hexahydropyrazolo[4′,3′:9,10][1,6]oxazacycloundecino[8,7,6-hi]indole-8-carboxylic Acid], for which the IC50 against MCL-1 (MCL-1 Assay IC50 (median)) stood at 1.2 nM; in the series on SUDHL5 cells [3] (setting [6]), 84 nM; with SUDHL10 cells [4] (setting [7]) it was 130 nM; in the series with SUDHL5 cells [5] (Homo sapiens, SU-DHL-5, 72 h) it was 70 nM; in the series on AMO-1 cells (Homo sapiens, AMO1, 72 h) it was 51.8 nM; with HMC-1-8 cells (setting [8]), 1870 nM. In addition, the EC50 with SUDHL5 cells [1] (Homo sapiens, SU-DHL-5, 3 h) amounted to 66 nM; in the series with SUDHL10 cells [2] (Homo sapiens, SU-DHL10, 3 h) it was 67 nM.

Take `CCc1c2c(nn1C)C1CCCN1CCCCn1c(C(=O)O)c(CCCOc3cccc4cc(F)ccc34)c3ccc(Cl)c-2c31` (single isomer, unassigned; (-)) [Example 106, (−)-17-chloro-1-ethyl-14-{3-[(6-fluoronaphthalen-1-yl)oxy]propyl}-2-methyl-3b,4,5,6,8,9,10,11-octahydro-2H-pyrazolo[3′,4′:8,9]pyrrolo[1′,2′:6,7][1,6]diazacycloundecino[10,11,1-hi]indole-13-carboxylic Acid]: the half-inhibitory concentration (IC50) turned out to be 17 nM on MCL-1 (setting [12]); 3700 nM in the series with SUDHL5 cells [3] (setting [9]); 5700 nM with SUDHL10 cells [4] (setting [10]); 2100 nM with SUDHL5 cells [5]; 4450 nM with AMO-1 cells; 20600 nM with HMC-1-8 cells (setting [11]). For the same compound, the EC50 in the series with SUDHL5 cells [1] was determined as 2700 nM; in the series on SUDHL10 cells [2], 4800 nM.

For `CCc1c2c(nn1C)C(CCCN1CCOCC1)OCCCCn1c(C(=O)O)c(CCCOc3cccc4cc(F)ccc34)c3ccc(Cl)c-2c31` (single isomer, unassigned; enantiomer 2) [Example 67, (−)-4-chloro-3-ethyl-7-{3-[(6-fluoronaphthalen-1-yl)oxy]propyl}-2-methyl-15-[3-(morpholin-4-yl)propyl]-2,10,11,12,13,15-hexahydropyrazolo[4′,3′:9,10][1,6]oxazacycloundecino[8,7,6-hi]indole-8-carboxylic Acid (Enantiomer 2)], the IC50 against MCL-1 (MCL-1 Assay IC50 (median)) is 7.8 nM; with SUDHL5 cells [3] (setting [9]), 2600 nM; in the series with SUDHL10 cells [4] (setting [10]), 4900 nM; with SUDHL5 cells [5], 2100 nM; in the series with AMO-1 cells it was 633 nM; with HMC-1-8 cells (setting [11]) it was more than 33000 nM. The EC50 was 1600 nM in the series with SUDHL5 cells [1] and 4400 nM in the series on SUDHL10 cells [2].

For the compound `CCc1c2c(nn1C)C(CCC1CCOCC1)N(C)CCCCn1c(C(=O)O)c(CCCOc3cccc4cc(F)ccc34)c3ccc(Cl)c-2c31` (centres unmarked) [Example 101, 4-chloro-3-ethyl-7-{3-[(6-fluoro-1-naphthyl)oxy]propyl}-2,14-dimethyl-15-[2-(tetrahydro-2H-pyran-4-yl)ethyl]-10,11,12,13,14,15-hexahydro-2H-pyrazolo[3′,4′:8,9][1,6]diazacycloundecino[10,11,1-hi]indole-8-carboxylic Acid], the IC50 came out at 1.8 nM at MCL-1 (setting [12]); 140 nM in the series with SUDHL5 cells [3]; 71 nM in the series on SUDHL10 cells [4]; 110 nM in the series on SUDHL5 cells [5]; 95.8 nM with AMO-1 cells; 1490 nM in the series on HMC-1-8 cells (setting [11]). The EC50 in the series on SUDHL5 cells [1] was found to be 69 nM; in the series on SUDHL10 cells [2] it was 51 nM.
